Counter-ions that a name gives are not always drawn. Like-named read-outs stand apart in the source and are kept apart here.
Experiments:
S. epidermidis SK9 [1] = test: Checkerboard titration, FICI; assay type: cell-based, Staphylococcus epidermidis; conditions: for concentration in combination: EDTA + ethanol
Experimental: (§1) A fourth composition and solution included tetrasodium EDTA with ethanol or chlorhexidine HCl. This fourth composition and solution were created using checkerboard titration methods using micro broth dilution in 96-well microtiter plates. The concentrations of antimicrobials used were based on previously determined MIC values. Briefly, 200 μL, of two-fold dilutions of tetrasodium EDTA and ethanol or chlorhexidine HCl were prepared in MH or MH II broth with standardized cell suspension. […] Microtiter plates were incubated at 37° C. for 24 h, and the results were analyzed. Each test was performed in duplicate and included a growth control without adding any antimicrobials.

MRSA ON184 [2] = test: MBEC assay, 48-h biofilm, 24 h exposure; assay type: cell-based, S. aureus
Experimental: (§2) A biofilm cultivation cell composition was provided. This fifth composition was created using an MBEC Assay® biofilm inoculator, consisting of a polystyrene lid with 96 downward-protruding pegs and a corresponding base used to grow biofilms. A standardized inoculum was diluted in an appropriate biofilm growth medium to achieve a viable cell count of 1.5×10^6 CFU/mL of bacterial cells or 5×10^5 CFU/mL of fungal cells. Then, 150 μL of this inoculum was transferred into each appropriate well, and the peg lids were inserted into the microtiter plates. The plates were sealed with Parafilm and were incubated at optimum temperature for 48 h with slight rocking for bacteria and shaking at 200 rpm for fungal strains. After incubation, the peg lid was removed from the base and rinsed twice with sterile phosphate-buffered saline (PBS) for 2 min to remove loosely attached non-sessile cells. Before the antimicrobial challenge, the pegs in column 1 (n=8) were considered the biofilm growth control; these pegs were removed from the lids, placed into 200 μL of recovery medium, and analyzed for starting biofilm cell numbers as described below. The rinsed pegs were placed into new 96-well plates containing two-fold dilutions of antimicrobials such as tetrasodium EDTA (4%-0.0125%), ethanol (100%-0.2%), and chlorhexidine HCl (100 μg/mL-0.4 μg/mL) in 200 μL of suitable biofilm growth medium per well and incubated at optimum temperature for 24 h. After the antimicrobial challenge, the pegs were rinsed twice with sterile PBS for 2 min and placed into a new 96-well plate containing 200 μL of recovery medium. The recovery plates were sealed with Parafilm, and biofilm cells were dislodged from the pegs by sonication for 30 min with a Branson 3510 bath sonicator. The biofilm cells in the recovery medium were serially diluted, and a drop dilution assay was performed to enumerate the viable cells. MBEC values were determined as the minimum concentration of antimicrobials that yielded a viable cell count at or lower than the 125 CFU/mL detection limit.

[3] = tested on: Pseudomonas aeruginosa SK1; test: FBEC index, checkerboard on biofilms; assay type: cell-based; conditions: for biofilm eradication concentration in combination (FBEC): EDTA + ethanol
Experimental: (§4) In step (4), microtiter plates are incubated at 37° C. for 24 h. then (6), after incubation, the bacterial and fungal cells were dislodged from the pegs into the recovery medium described above.
(§5) Three 10-μL aliquots, for a total of 30 μL from each well of recovery medium, were spotted on MH agar plates and incubated for 24 h at 37° C. […] The FBEC determination is a modification of the FICI.

Proteus mirabilis ON153 = test: MBEC assay, 48-h biofilm, 24 h exposure; assay type: cell-based
Experimental: as §2

Escherichia coli SK2 = test: MBEC assay, 48-h biofilm, 24 h exposure; assay type: cell-based
Experimental: as §2

[4] = tested on: Staphylococcus aureus ON89; test: MBEC assay, 48-h biofilm, 24 h exposure; assay type: cell-based
Experimental: as §2

MRSA ON184 [5] = test: Checkerboard, FMCI; assay type: cell-based, S. aureus; conditions: for microbicidal concentration in combination: EDTA + ethanol
Experimental: (§3) An assay was made using a minimum inhibitory concentration (MIC) and minimum bactericidal concentration (MBC) and minimum fungicidal concentration (MFC) determination. The MIC was determined by the micro broth dilution method in 96-well plates. Serial two-fold dilutions of tetrasodium EDTA (from 2% to 0.015%), ethanol (from 50% to 0.1%) and chlorhexidine HCl (from 100 μg/mL to 0.025 μg/mL) were prepared in MH broth with a final volume of 90 μL per well. A 10 μL containing 1×10^5 bacterial cells or 2×10^3 fungal cells were added to each well. The inoculated plates were covered with a lid, sealed with Parafilm, and incubated for 24 h at 37° C. with slight rocking on a tilting platform shaker. After incubation, the optical density at 600 nm (OD 600) of the cultures in each well was measured using an xMark™ Microplate Absorbance Spectrophotometer (Bio-Rad). […] MBCs and MFCs were determined by transferring 100 μL from each well with no apparent growth onto appropriate agar plates, followed by incubation for 24 h at 37° C.
as §1

C. albicans ON47 [6] = test: Checkerboard titration, FICI; assay type: cell-based, Candida albicans; conditions: for concentration in combination: EDTA + ethanol
Experimental: as §1

E. coli SK2 [7] = test: Checkerboard, FMCI; assay type: cell-based, Escherichia coli; conditions: for microbicidal concentration in combination: EDTA + ethanol
Experimental: as §3, §1

MRSA ON184 [8] = test: FBEC index, checkerboard on biofilms; assay type: cell-based, S. aureus; conditions: for biofilm eradication concentration in combination (FBEC): EDTA + ethanol
Experimental: as §4, §5

E. coli SK2 [9] = test: MIC, micro broth dilution; assay type: cell-based, Escherichia coli; conditions: alone
Experimental: as §3

S. epidermidis SK9 [10] = test: Checkerboard, FMCI; assay type: cell-based, Staphylococcus epidermidis; conditions: for microbicidal concentration in combination: EDTA + ethanol
Experimental: as §3, §1

C. albicans ON47 [11] = test: MBC/MFC determination; assay type: cell-based, Candida albicans; conditions: alone
Experimental: as §3

[12] = tested on: Staphylococcus epidermidis SK9; test: FBEC index, checkerboard on biofilms; assay type: cell-based; conditions: for biofilm eradication concentration in combination (FBEC): EDTA + ethanol
Experimental: as §4, §5

E. coli SK2 [13] = test: Checkerboard titration, FICI; assay type: cell-based, Escherichia coli; conditions: for concentration in combination: EDTA + ethanol
Experimental: as §1

[14] = tested on: 48-h-old biofilms of bacterial and fungal strains; test: MBEC assay, 24-h exposure; assay type: cell-based; conditions: 24 h of treatment
Experimental: as §2, with “The rinsed pegs were placed into new 96-well plates containing two-fold dilutions of antimicrobials such as tetrasodium EDTA (4%-0.0125%), ethanol (100%-0.2%), and chlorhexidine HCl (100 μg/mL-0.4 μg/mL) in 200 μL of suitable biofilm growth medium per well and incubated at optimum temperature for 24 h.” left out

SMILES	MBEC (MRSA ON184 [2])	MBEC (Proteus mirabilis ON153)	MBEC (Escherichia coli SK2)	MBEC [4]	MBC/MFC (C. albicans ON47 [11])	concentration alone able to eradicate all established biofilms [14]	concentration in combination (S. epidermidis SK9 [1])	biofilm eradication concentration in combination (FBEC) [3]	microbicidal concentration in combination (MRSA ON184 [5])	concentration in combination (C. albicans ON47 [6])	microbicidal concentration in combination (E. coli SK2 [7])	biofilm eradication concentration in combination (FBEC) (MRSA ON184 [8])	MIC (E. coli SK2 [9])	microbicidal concentration in combination (S. epidermidis SK9 [10])	biofilm eradication concentration in combination (FBEC) [12]	concentration in combination (E. coli SK2 [13])	further results
[H]/N=C(\N/C(=N/[H])NCCCCCCNC(=N)NC(=N)Nc1ccc(Cl)cc1)Nc1ccc(Cl)cc1 [Chlorhexidine HCl, 1,6-bis(4′-chlorophenylbiguanide) hexane]	50 µg/mL	100 µg/mL	50 µg/mL	100 µg/mL	3.125 µg/mL	100 µg/mL											Chlorhexidine HCl concentration in combination (S. epidermidis SK9 [1]; EDTA + chlorhexidine HCl): 0.025 µg/mL; Chlorhexidine HCl biofilm eradication concentration in combination (FBEC) ([3]; EDTA + chlorhexidine HCl): 3.125 µg/mL; Chlorhexidine HCl microbicidal concentration in combination (MRSA ON184 [5]; EDTA + chlorhexidine HCl): 0.4 µg/mL; Chlorhexidine HCl concentration in combination (C. albicans ON47 [6]; EDTA + chlorhexidine HCl): 0.8 µg/mL; Chlorhexidine HCl microbicidal concentration in combination (E. coli SK2 [7]; EDTA + chlorhexidine HCl): 0.2 µg/mL; Chlorhexidine HCl biofilm eradication concentration in combination (FBEC) (MRSA ON184 [8]; EDTA + chlorhexidine HCl): 6.25 µg/mL; MIC (E. coli SK2 [9]; Escherichia coli, read-out: MIC): 0.4 µg/mL; Chlorhexidine HCl microbicidal concentration in combination (S. epidermidis SK9 [10]; EDTA + chlorhexidine HCl): 0.4 µg/mL; Chlorhexidine HCl biofilm eradication concentration in combination (FBEC) ([12]; EDTA + chlorhexidine HCl): 3.125 µg/mL; Chlorhexidine HCl concentration in combination (E. coli SK2 [13]; EDTA + chlorhexidine HCl): 0.1 µg/mL
O=C([O-])CN(CCN(CC(=O)[O-])CC(=O)[O-])CC(=O)[O-].[Na+].[Na+].[Na+].[Na+] [EDTA, tetrasodium EDTA]	2 % w/v	4 % w/v	2 % w/v	4 % w/v	1 % w/v	4%	0.015 % w/v	0.125 % w/v	0.031 % w/v	0.25 % w/v	0.25 % w/v	0.063 % w/v	0.5 % w/v	0.031 % w/v	0.031 % w/v	0.015 % w/v	EDTA concentration in combination (S. epidermidis SK9 [1]; EDTA + chlorhexidine HCl): 0.015 % w/v; EDTA biofilm eradication concentration in combination (FBEC) ([3]; EDTA + chlorhexidine HCl): 0.25 % w/v; EDTA microbicidal concentration in combination (MRSA ON184 [5]; EDTA + chlorhexidine HCl): 0.125 % w/v; EDTA concentration in combination (C. albicans ON47 [6]; EDTA + chlorhexidine HCl): 0.125 % w/v; EDTA microbicidal concentration in combination (E. coli SK2 [7]; EDTA + chlorhexidine HCl): 0.015 % w/v; EDTA biofilm eradication concentration in combination (FBEC) (MRSA ON184 [8]; EDTA + chlorhexidine HCl): 0.031 % w/v; EDTA microbicidal concentration in combination (S. epidermidis SK9 [10]; EDTA + chlorhexidine HCl): 0.008 % w/v; EDTA biofilm eradication concentration in combination (FBEC) ([12]; EDTA + chlorhexidine HCl): 0.125 % w/v; EDTA concentration in combination (E. coli SK2 [13]; EDTA + chlorhexidine HCl): 0.008 % w/v
CCO [Ethanol, ethanol]	12.5 % w/v	50 % w/v	12.5 % w/v	12.5 % w/v	6.25 % w/v	5%	0.4 % w/v	3.125 % w/v	3.125 % w/v	0.4 % w/v	6.25 % w/v	1.6 % w/v	12.5 % w/v	3.125 % w/v	1.6 % w/v	6.25 % w/v	

Source: patent US20230263757A1, “DISINFECTING WIPE KIT FOR CENTRAL VENOUS ACCESS DEVICES” (SterileCare Inc., priority 2022, published 2023)
